From patent US9733187B2, “Method of detecting bladder cancer by optical analysis of bodily fluids” (KING SAUD UNIVERSITY, priority 2015, dated 2017)

Key:
[1] = porphyrin synthesized from administered 5-aminolevulinic acid; cited from earlier work
[2] = Porphyrin elimination after oral administration of 5-aminolevulinic acid; type: in vivo
Description: The patient is administered 5-aminolevulinic acid (also referred to as 8-aminolevulinic acid), which is the first compound in the porphyrin synthesis pathway (i.e., the pathway that leads to heme in mammals). The 5-aminolevulinic acid is preferably administered orally at a dosage of approximately 5 mg of 5-aminolevulinic acid per kilogram of the patient's body weight. The patient can drink water upon taking the 5-aminolevulinic acid. The patient can wait approximately eight hours before urinating.
Approximately eight hours after oral administration of the 5-aminolevulinic acid, a bodily fluid sample is collected from the patient, and this bodily fluid sample is optically analyzed to measure a concentration of porphyrin therein. Preferably, multiple bodily fluid samples are taken at two hour intervals (i.e., one initial sample at the time of administration, and then subsequent samples taken at two hours, four hours, six hours and eight hours after administration). The bodily fluid being analyzed may be urine and/or blood.
Porphyrin is synthesized by the 5-aminolevulinic acid which is administered to the patient.

- porphyrin retention time ([2]; bladder cancer patients): up to eight
- porphyrin eliminated through urine ([2]; healthy person, after four hours following administration of 5-aminolevulinic acid): approximately 90%
SMILES: C1=Cc2cc3ccc(cc4nc(cc5ccc(cc1n2)[nH]5)C=C4)[nH]3 [Porphyrin, porphyrin]
- half-life [1]: approximately two
